According to patent US20080076824A1, “Compounds That Inhibit Replication Of Human Immunodeficiency Virus” (priority 2004, published 2008):
Converted amounts (≈) assume the structure as drawn. Where two headings read alike, the source gives them in different places. Non-standard residues stand in square brackets, D forms with d. Residues, ends and D or L forms follow the SMILES beside them. pGlu = O=C1CC[C@@H](C(=O)O)N1

Key:
Parainfluenza-3 virus [1] = settings: Vero; reduces virus-induced cytopathogenicity by 50%
Sindbis virus [2] = settings: Vero; reduces virus-induced cytopathogenicity by 50%
Vero cell cultures [3] = system: Vero cell cultures
Coxsackie virus B4 [4] = test: Antiviral activity in Vero cell cultures, Coxsackie virus B4; format: cell-based
Procedure: (§1) The cytotoxicity and antiviral activity of various concentrations of G-NH2 and GPG-NH2 were evaluated in cell cultures that were infected with various types of viruses. Conventional host cell culture, viral infection, and infectivity analysis for each different type of cell and virus were followed. Compounds that were known to inhibit replication of the particular types of viruses analyzed were used as controls.

[5] = system: Vesicular stomatitis virus; settings: HeLa; reduces virus-induced cytopathogenicity by 50%
Reovirus-1 [6] = settings: Vero; reduces virus-induced cytopathogenicity by 50%
HeLa cell cultures [7] = system: HeLa cell cultures
[8] = system: Respiratory syncytial virus; settings: HeLa; reduces virus-induced cytopathogenicity by 50%
Punta Toro virus [9] = settings: Vero; reduces virus-induced cytopathogenicity by 50%
Coxsackie virus B4 [10] = test: Antiviral activity in HeLa cell cultures, Coxsackie virus B4; format: cell-based
Procedure: as §1

Reovirus-1 [11] = test: organism not typed; settings: Vero, read-out: Minimum inhibitory concentration Reovirus-1
Parainfluenza-3 virus [12] = test: organism not typed; settings: Vero, read-out: Minimum inhibitory concentration Parainfluenza-3 virus
Punta Toro virus [13] = test: microbe, parasite or virus in culture; settings: Vero, read-out: Minimum inhibitory concentration Punta Toro virus
Vaccinia virus = test: microbe, parasite or virus in culture; settings: Orthopoxvirus vaccinia, HEL, read-out: Minimum inhibitory concentration Vaccinia virus
[14] = system: Herpes simplex virus-1 TK^− KOS ACV^r; test: microbe, parasite or virus in culture; settings: Human alphaherpesvirus 1, HEL, read-out: Minimum inhibitory concentration Herpes simplex virus-1 TK^− KOS ACV^r
Sindbis virus [15] = test: microbe, parasite or virus in culture; settings: Vero, read-out: Minimum inhibitory concentration Sindbis virus
[16] = system: Herpes simplex virus-1 (KOS); test: microbe, parasite or virus in culture; settings: Human alphaherpesvirus 1, HEL, read-out: Minimum inhibitory concentration Herpes simplex virus-1 (KOS)
Vero cell cultures [17] = test: Cytotoxicity in Vero cell cultures (cell morphology); settings: alteration of normal cell morphology
HEL cell cultures = test: Cytotoxicity in HEL cell cultures (cell morphology); settings: alteration of normal cell morphology
HeLa cell cultures [18] = test: Cytotoxicity in HeLa cell cultures (cell morphology); settings: alteration of normal cell morphology
[19] = system: Respiratory syncytial virus; test: microbe, parasite or virus in culture; settings: human respiratory syncytial virus, HeLa, read-out: Minimum inhibitory concentration Respiratory syncytial virus
[20] = system: Vesicular stomatitis virus; test: microbe, parasite or virus in culture; settings: HeLa, read-out: Minimum inhibitory concentration Vesicular stomatitis virus
[21] = system: Vesicular stomatitis virus; test: microbe, parasite or virus in culture; settings: HEL, read-out: Minimum inhibitory concentration Vesicular stomatitis virus
[22] = system: Herpes simplex virus-2 (G); test: microbe, parasite or virus in culture; settings: Human alphaherpesvirus 2, HEL, read-out: Minimum inhibitory concentration Herpes simplex virus-2 (G)
[23] = biological target: T1, dipeptidylpeptidase activity associated with BS (Bos taurus, UniProt P81425); test: Inhibition of dipeptidylpeptidase activity of fetal bovine serum (substrate GP-pNA); format: biochemical; settings: read-out: 50% inhibitory concentration (IC50)
T1 construct: from tissue; host or cells: fetal bovine serum

HIV-2 (ROD) = test: microbe, parasite or virus in culture; format: cell-based; settings: 2 (ROD)
Procedure: Human T-lymphocytic CEM cells (4.5×10^5 cells per ml) were suspended in fresh cell culture medium and infected with HIV-1 (IIIB and NL4.3) or HIV-2 (ROD or EHO) at 100 CCID50 (1 CCID50 being the virus dose infective for 50% of the cell cultures) per ml of cell suspension. Then, 100 μl of the infected cell suspension were transferred to microplate wells, mixed with 100 μl of appropriate (freshly prepared) dilutions of the test compounds (i.e., at final concentrations of […]), and were further incubated at 37° C. After 4 to 5 days, giant cell formation was recorded microscopically in the CEM cell cultures. […] (See Table 1).
MT-4, C8166 or CEM cells (4 to 5×10^5 cells per ml) were suspended in fresh culture medium (RPMI-1640 medium supplemented with 10% fetal bovine serum (FBS) (BioWittaker Europe, Verviers, Belgium), 2 mM L-glutamine and […] NaHCO3). Subsequently, the cells were infected with HIV-1 (IIIB) or HIV-2(ROD) at ˜100 CCID50 (1 CCID50 being the dose infective for 50% of the cell cultures) per ml of cell suspension. Then, 100 μl of the infected cell suspension were transferred to 96-well microplate wells, mixed with 100 μl of the appropriate (5-fold) dilutions of the test compounds and further incubated at 37° C. After 4 to 5 days, giant cell formation was recorded microscopically in the CEM and C8166 cell cultures. The MT-4 cell cultures were treated with trypan blue and the number of viable cells was determined.

[24] = biological target: T2, CD26/dipeptidylpeptidase IV (Homo sapiens, UniProt P27487); test: Conversion of GPG-NH2 to GP-OH and G-NH2 by purified CD26; format: biochemical
T2 construct: made in house; by own knowledge a natural human source (seminal plasma), not recombinant
Procedure: In some experiments, approximately, 100 μM GPG-NH2 was exposed to 25 units/l of purified CD26 and the mixture was incubated for up to 400 minutes at room temperature. The lymphocyte surface glycoprotein CD26/dipeptidylpeptidase IV was purified as described before. (See De Meester, J. Immunol. Methods, 189:99-105 (1996), herein expressly incorporated by reference in its entirety). At different time points, an aliquot of the reaction mixture was withdrawn and analyzed on an electrospray ion trap mass spectrometer (Esquire, Bruker, Bremen, Germany). The appearance of the dipeptide GP-OH upon release from the amino terminal end of the GPG-NH2 molecule, as well as, the disappearance of intact GPG-NH2 from the reaction mixture was determined and monitored by electrospray ion trap mass spectometric analysis at different time points (See FIG. 3). Under these experimental conditions, CD26 released GP-OH in a time-dependent manner from GPG-NH2, and virtually completely converted GPG-NH2 to GP-OH and G-NH2 within 4 to 6 hrs of the reaction.
Next, the conversion of radiolabeled [^14C]GPG-NH2 to [^14C]G-NH2 by purified CD26, fetal bovine serum (FBS), human serum (HS) and CEM cell suspensions was analyzed. […] A variety of these [^14C]GPG-NH2 concentrations were exposed to purified CD26, FBS, HS and CEM cell suspensions and the conversion to G-NH2 was analyzed. […]

HIV-1 (IIIB) = settings: in words
HIV-2 (EHO) = system: HIV-2 (EHO)
Procedure: Human T-lymphocytic CEM cells (4.5×10^5 cells per ml) were suspended in fresh cell culture medium and infected with HIV-1 (IIIB and NL4.3) or HIV-2 (ROD or EHO) at 100 CCID50 (1 CCID50 being the virus dose infective for 50% of the cell cultures) per ml of cell suspension. Then, 100 μl of the infected cell suspension were transferred to microplate wells, mixed with 100 μl of appropriate (freshly prepared) dilutions of the test compounds (i.e., at final concentrations of […]), and were further incubated at 37° C. After 4 to 5 days, giant cell formation was recorded microscopically in the CEM cell cultures.

in vitro = settings: human
[25] = reduces virus-induced cytopathogenicity by 50%
[26] = Enterovirus B, B4, reduces virus-induced cytopathogenicity by 50%, read-out: Minimum inhibitory concentration Coxsackie virus B4

T2 sequence (P27487 whole entry): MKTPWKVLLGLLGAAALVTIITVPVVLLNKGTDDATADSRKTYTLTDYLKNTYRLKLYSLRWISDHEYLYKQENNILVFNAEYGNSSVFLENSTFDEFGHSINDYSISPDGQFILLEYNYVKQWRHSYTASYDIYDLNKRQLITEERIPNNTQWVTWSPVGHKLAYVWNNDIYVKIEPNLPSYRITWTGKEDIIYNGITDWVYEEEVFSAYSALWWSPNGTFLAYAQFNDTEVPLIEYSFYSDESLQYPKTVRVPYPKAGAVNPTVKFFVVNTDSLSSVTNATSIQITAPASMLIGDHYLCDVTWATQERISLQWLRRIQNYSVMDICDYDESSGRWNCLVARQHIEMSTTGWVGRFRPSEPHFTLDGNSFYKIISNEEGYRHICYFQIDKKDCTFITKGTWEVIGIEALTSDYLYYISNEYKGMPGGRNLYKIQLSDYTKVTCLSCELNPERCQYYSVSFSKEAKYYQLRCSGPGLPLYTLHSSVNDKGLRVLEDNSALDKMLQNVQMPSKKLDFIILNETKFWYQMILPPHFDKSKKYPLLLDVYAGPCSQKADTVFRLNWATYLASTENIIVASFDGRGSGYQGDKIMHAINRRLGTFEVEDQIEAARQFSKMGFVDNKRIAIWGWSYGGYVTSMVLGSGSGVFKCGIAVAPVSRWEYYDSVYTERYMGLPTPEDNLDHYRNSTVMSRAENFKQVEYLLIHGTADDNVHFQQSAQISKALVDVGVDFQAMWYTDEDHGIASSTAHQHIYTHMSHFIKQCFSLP
T1 sequence (P81425 38-765 limits assumed): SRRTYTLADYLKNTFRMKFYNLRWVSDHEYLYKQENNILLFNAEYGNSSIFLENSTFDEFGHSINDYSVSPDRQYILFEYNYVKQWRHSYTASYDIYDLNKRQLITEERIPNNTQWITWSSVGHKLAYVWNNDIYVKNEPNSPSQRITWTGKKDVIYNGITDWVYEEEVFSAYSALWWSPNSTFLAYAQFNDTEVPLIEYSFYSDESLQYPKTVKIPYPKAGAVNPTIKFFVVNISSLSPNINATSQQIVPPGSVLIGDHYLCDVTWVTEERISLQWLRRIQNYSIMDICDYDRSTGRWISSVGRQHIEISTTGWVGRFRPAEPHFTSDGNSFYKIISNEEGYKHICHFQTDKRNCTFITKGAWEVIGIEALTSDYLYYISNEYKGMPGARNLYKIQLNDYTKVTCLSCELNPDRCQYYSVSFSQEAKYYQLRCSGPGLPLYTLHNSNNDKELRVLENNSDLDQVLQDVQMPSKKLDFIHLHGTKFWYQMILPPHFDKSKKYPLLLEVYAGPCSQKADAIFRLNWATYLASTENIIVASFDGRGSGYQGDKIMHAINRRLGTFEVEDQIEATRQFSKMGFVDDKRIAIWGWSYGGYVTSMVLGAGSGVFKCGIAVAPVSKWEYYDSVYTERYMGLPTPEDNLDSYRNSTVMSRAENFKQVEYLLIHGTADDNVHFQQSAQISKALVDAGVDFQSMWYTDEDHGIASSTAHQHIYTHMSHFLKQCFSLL

With Nc1ncnc2c1ncn2C[C@H](O)CO [(S)-DHPA, reference compound] as the molecule, how does the “Minimum inhibitory concentration Parainfluenza-3 virus” value (Parainfluenza-3 virus [1]) read?
The value was 240 µg/mL (≈ 1150 µM).

What about the “Minimum inhibitory concentration Sindbis virus” value (Sindbis virus [2]) of the same molecule?
Its value is >400 µg/mL.

What about the Minimum cytotoxic concentration (Vero cell cultures [3]) of the same molecule?
The Minimum cytotoxic concentration was >400 µg/mL.

And the “Minimum inhibitory concentration Coxsackie virus B4” value (Coxsackie virus B4 [4]; [25])?
Its value is >400 µg/mL.

What about the “Minimum inhibitory concentration Vesicular stomatitis virus” value [5] of the same molecule?
The value was 240 µg/mL (≈ 1150 µM).

And the “Minimum inhibitory concentration Reovirus-1” value (Reovirus-1 [6])?
Its value is 80 µg/mL (≈ 382 µM).

What about the Minimum cytotoxic concentration (HeLa cell cultures [7]) of the same molecule?
The Minimum cytotoxic concentration was >400 µg/mL.

What about the “Minimum inhibitory concentration Respiratory syncytial virus” value [8] of the same molecule?
Its value is >400 µg/mL.

And the “Minimum inhibitory concentration Punta Toro virus” value (Punta Toro virus [9])?
The value was >400 µg/mL.

And the “Minimum inhibitory concentration Coxsackie virus B4” value (Coxsackie virus B4 [10]; [25])?
Its value is >400 µg/mL.

With O=c1[nH]c(=O)n([C@H]2C[C@H](O)[C@@H](CO)O2)cc1/C=C/Br [BVDU] as the molecule, how does the EC50 (Reovirus-1 [11]) read?
Its EC50 is > 400 µg/mL.

And the EC50 (Coxsackie virus B4 [4]; [26])?
The EC50 was > 400 µg/mL.

What about the EC50 (Parainfluenza-3 virus [12]) of the same molecule?
Its EC50 is > 400 µg/mL.

What about the EC50 (Punta Toro virus [13]) of the same molecule?
The EC50 was > 400 µg/mL.

What about the EC50 (Vaccinia virus) of the same molecule?
The EC50 was 0.64 µg/mL (≈ 1.92 µM).

And the EC50 [14]?
The EC50 was 400 µg/mL (≈ 1200 µM).

And the EC50 (Sindbis virus [15])?
Its EC50 is > 400 µg/mL.

And the EC50 [16]?
Its EC50 is 0.0256 µg/mL (≈ 0.0768 µM).

And the Minimum cytotoxic concentration (Vero cell cultures [17])?
Its Minimum cytotoxic concentration is >400 µg/mL.

What about the “Minimum cytotoxic concentration” value (HEL cell cultures) of the same molecule?
Its value is >400 µg/mL.

What about the Minimum cytotoxic concentration (HeLa cell cultures [18]) of the same molecule?
Its Minimum cytotoxic concentration is “≧400 μg/ml”.

And the EC50 [19]?
Its EC50 is > 400 µg/mL.

And the EC50 (Coxsackie virus B4 [10]; [26])?
The EC50 was > 400 µg/mL.

And the EC50 [20]?
Its EC50 is > 400 µg/mL.

What about the EC50 [21] of the same molecule?
The EC50 was 400 µg/mL (≈ 1200 µM).

What about the EC50 [22] of the same molecule?
The EC50 was > 400 µg/mL.

With CCC(C)C(N)C(=O)N1CCCC1 [IlePyr, L-isoleucinepyrrolidine] as the molecule, how does the IC50 [23] read?
The IC50 was 99 µM.

For NC(=O)CNC(=O)[C@@H]1CCCN1C(=O)[C@@H]1CCC(=O)N1 [PyrQ-PG-NH2, cyclic pyrroglutaminylprolylglycinamide] ([pGlu]-Pro-Gly-NH2), which EC50 (HIV-2 (ROD)) is on record?
Its EC50 is > 2000 µM.

What about the “release of G-NH2 by CD26” value [24] of the same molecule?
Its value is “unable to release G-NH2”.

What about the “inhibition of HIV replication in cell culture” value (HIV-1 (IIIB)) of the same molecule?
Its value is “ineffective”.

And the EC50 (HIV-2 (EHO))?
Its EC50 is > 2000 µM.

What about the EC50 (in vitro) of the same molecule?
The EC50 was > 2000 µM.
